Assay results reported in EP2033655B1 (priority 2007, dated 2009).
Side chains are listed from the residue outwards. Peptide text beside a SMILES is read from it. * marks the point of attachment. X1 = NCCCC[C@H](N)CN1CCC[C@H]1C(=O)*

Molecular target: T1, cell-surface expressed nucleolin (Homo sapiens, UniProt P19338)
T1 construct: endogenous in cells; host or cells: HeLa P4 cells
Test: cell-based

T1 sequence (P19338 whole entry): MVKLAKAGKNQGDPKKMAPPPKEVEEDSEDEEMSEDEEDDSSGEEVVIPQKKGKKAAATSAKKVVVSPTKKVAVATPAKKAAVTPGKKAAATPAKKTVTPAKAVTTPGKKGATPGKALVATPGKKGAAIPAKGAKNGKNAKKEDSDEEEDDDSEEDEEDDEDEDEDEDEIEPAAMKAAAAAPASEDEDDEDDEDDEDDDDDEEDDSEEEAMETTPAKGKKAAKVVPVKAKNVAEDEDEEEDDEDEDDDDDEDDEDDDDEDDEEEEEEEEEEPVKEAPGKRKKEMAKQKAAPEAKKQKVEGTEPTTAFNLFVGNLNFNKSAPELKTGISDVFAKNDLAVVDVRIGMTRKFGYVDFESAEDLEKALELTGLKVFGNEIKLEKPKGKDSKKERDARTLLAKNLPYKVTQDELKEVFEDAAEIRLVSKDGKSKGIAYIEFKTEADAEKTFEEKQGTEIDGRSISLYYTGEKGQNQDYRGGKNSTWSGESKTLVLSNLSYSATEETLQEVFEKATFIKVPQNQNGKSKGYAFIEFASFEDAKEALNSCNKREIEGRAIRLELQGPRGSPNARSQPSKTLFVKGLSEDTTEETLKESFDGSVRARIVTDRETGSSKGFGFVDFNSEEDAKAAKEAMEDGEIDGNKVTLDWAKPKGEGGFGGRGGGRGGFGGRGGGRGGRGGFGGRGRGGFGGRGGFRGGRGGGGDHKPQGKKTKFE

## CC(=O)N[C@@H](CCCCNC(=O)[C@H](CCCNC(=N)N)NC(=O)[C@@H]1CCCN1C[C@@H](N)CCCCN)C(=O)N[C@@H](C)C(=O)N[C@@H](CCCCNC(=O)[C@H](CCCNC(=N)N)NC(=O)[C@@H]1CCCN1C[C@@H](N)CCCCN)C(=O)N1CCC[C@H]1C(=O)NCC(=O)N[C@@H](CCCCNC(=O)[C@H](CCCNC(=N)N)NC(=O)[C@@H]1CCCN1C[C@@H](N)CCCCN)C(=O)N[C@@H](C)C(=O)N[C@@H](CCCCNC(=O)[C@H](CCCNC(=N)N)NC(=O)[C@@H]1CCCN1C[C@@H](N)CCCCN)C(=O)N1CCC[C@H]1C(=O)NCC(=O)N[C@@H](CCCCNC(=O)[C@H](CCCNC(=N)N)NC(=O)[C@@H]1CCCN1C[C@@H](N)CCCCN)C(=O)N[C@@H](C)C(=O)N[C@@H](CCCCNC(=O)[C@H](CCCNC(=N)N)NC(=O)[C@@H]1CCCN1C[C@@H](N)CCCCN)C(=O)N1CCC[C@H]1C(=O)NCC(N)=O [Nucant 7] (Ac-K([Arg-X1])AK([Arg-X1])PGK([Arg-X1])AK([Arg-X1])PGK([Arg-X1])AK([Arg-X1])PG-NH2)
  IC50: < 100 nM
HeLaP4, read-out: inhibitory activity
  inhibition at 0.8 µM: > 95%
